Measured values as given in patent US20050176619A1, “Antitumoral formulations of thioxanthenone” (priority 2001, published 2005).
Values after ≈ are worked out from the molar mass of the structure shown.

Legend:
Solubility in water = assay type: physicochemical
From the text: (§1) It is desirable in the treatment of tumors and cancers to provide the active pharmaceutical ingredient as a ready-to-use (RTU) solution formulation which is pharmaceutically stable over prolonged periods of storage. […] Accordingly, it is an object of the present invention to overcome these difficulties by providing a stable solution formulation of N-[[1-[[2-(diethylamino)ethyl]amino]-7-methoxy-9-oxothioxanthen-4-yl]methyl]formamide, or a pharmaceutically acceptable acid-addition salt thereof, in ready-to-use form.

[1] = Stability under acidic conditions; assay type: physicochemical
From the text: as §1

CCN(CC)CCNc1ccc(CNC=O)c2sc3ccc(OC)cc3c(=O)c12 [N-[[1-[[2-(diethylamino)ethyl]amino]-7-methoxy-9-oxothioxanthen-4-yl]methyl]formamide]
solubility (Solubility in water): 100 µg/mL (≈ 242 µM) | stability under acidic conditions [1]: unstable under acidic conditions
